# System: HIV
# Test: HOS HIV infectivity assay (Table 2, strain not given)
# Type: cell-based
# Conditions: Human immunodeficiency virus 1, read-out: Activity Level
# Procedure: HOS HIV-1 Infectivity Assay
# Compounds were profiled against two HIV-1 viruses, the M-tropic (CCR5 utilizing) Ba-L strain and the T-tropic (CXCR4 utilizing) IIIB strain. Both viruses were propagated in human peripheral blood lymphocytes. Compounds were tested for there ability to block infection of the HOS cell line (expressing hCXCR4/hCCR5/hCD4/pHIV-LTR-luciferase) by either HIV-1 Ba-L or HIV-1 IIIB. Compound cytotoxicity was also examined in the absence of virus addition.
# HOS HIV-1 Infectivity Assay Format
# HOS cells (expressing hCXCR4/hCCR5/hCD4/pHIV-LTR-luciferase) were harvested and diluted in Dulbeccos modified Eagles media supplemented with 2% FCS and non-essential amino acid to a concentration of 60,000 cells/ml. The cells were plated into 96-well plates (100 ul per well) and the plates were placed in a tissue culture incubator (37° C.; 5% CO2/95% air) for a period of 24 h.
# Subsequently, 50 ul of the desired drug solution (4 times the final concentration) was added to each well and the plates were returned to the tissue culture incubator (37° C.; 5% CO2/95% air) for 1 h. Following this incubation 50 ul of diluted virus was added to each well (approximately 2 million RLU per well of virus). The plates were returned to the tissue culture incubator (37° C.; 5% CO2/95% air) and were incubated for a further 96 h.
# Following this incubation the endpoint for the virally infected cultures was quantified following addition of Steady-Glo Luciferase assay system reagent (Promega, Madison, Wis.). Cell viability or non-infected cultures was measured using a CellTiter-Glo luminescent cell viability assay system (Promega, Madison, Wis.). All luminescent readouts are performed on a Topcount luminescence detector (Packard, Meridien, Conn.).
row,Compound,IC50 [nM]
1,"CN1CCC(N(C)c2cccc3nc(CN(C)C4CCCc5cccnc54)cn23)CC1 (centres unmarked) [Example 28, N-Methyl-N-({5-[methyl(1-methyl-4-piperidinyl)amino]imidazo[1,2-a]pyridin-2-yl}methyl)-5,6,7,8-tetrahydro-8-quinolinamine]",100 to 500
2,"CN(Cc1cn2c(-c3cccnc3)cccc2n1)C1CCCc2cccnc21 (centres unmarked) [Example 40, N-Methyl-N-{[5-(3-pyridinyl)imidazo[1,2-a]pyridin-2-yl]methyl}-5,6,7,8-tetrahydro-8-quinolinamine]",500 to 10000
3,"CN(C)[C@@H]1CCN(c2cccc3nc(CN(CC4CC4)[C@H]4CCCc5cccnc54)cn23)C1 [Example 99, (8S)—N-(Cyclopropylmethyl)-N-({5-[(3R)-3-(dimethylamino)-1-pyrrolidinyl]imidazo[1,2-a]pyridin-2-yl}methyl)-5,6,7,8-tetrahydro-8-quinolinamine]",< 100
4,"CCCCN(Cc1cn2c(N3CCN(C)CC3)cccc2n1)[C@H]1CCCc2cccnc21 [Example 58, (8S)—N-Butyl-N-{[5-(4-methyl-1-piperazinyl)imidazo[1,2-a]pyridin-2-yl]methyl}-5,6,7,8-tetrahydro-8-quinolinamine]",< 100
5,"FC(F)(F)CN(Cc1cn2c(N3CCNCC3)cccc2n1)C1CCCc2cccnc21 (centres unmarked) [Example 22, N-{[5-(1-piperazinyl)imidazo[1,2-a]pyridin-2-yl]methyl}-N-(2,2,2-trifluoroethyl)-5,6,7,8-tetrahydro-8-quinolinamine]",100 to 500
6,"Cc1ccccc1CN(Cc1cn2c(N3CCN(C)CC3)cccc2n1)[C@H]1CCCc2cccnc21 [Example 66, (8S)—N-[(2-Methylphenyl)methyl]-N-{[5-(4-methyl-1-piperazinyl)imidazo[1,2-a]pyridin-2-yl]methyl}-5,6,7,8-tetrahydro-8-quinolinamine]",< 100
7,"CN(Cc1cn2c(N3CC[C@@H](N)C3)cccc2n1)C1CCCc2cccnc21 (stereo partly drawn) [Example 27, N-({5-[(3R)-3-Amino-1-pyrrolidinyl]imidazo[1,2-a]pyridin-2-yl}methyl)-N-methyl-5,6,7,8-tetrahydro-8-quinolinamine]",< 100
8,"CN(Cc1cn2c(NC(=O)c3ccncc3)cccc2n1)C1CCCc2cccnc21 (centres unmarked) [Example 45, N-(2-{[Methyl(5,6,7,8-tetrahydro-8-quinolinyl)amino]methyl}imidazo[1,2-a]pyridin-5-yl)-4-pyridinecarboxamide]",500 to 10000
9,"CN(Cc1cn2c(N3CCC(N)CC3)cccc2n1)C1CCCc2cccnc21 (centres unmarked) [Example 37, N-{[5-(4-Amino-1-piperidinyl)imidazo[1,2-a]pyridin-2-yl]methyl}-N-methyl-5,6,7,8-tetrahydro-8-quinolinamine]",< 100
10,"CN(Cc1cn2c(OCCN3CCCCC3)cccc2n1)[C@H]1CCCc2cccnc21 [Example 106, (8S)—N-Methyl-N-[(5-{[2-(1-piperidinyl)ethyl]oxy}imidazo[1,2-a]pyridin-2-yl)methyl]-5,6,7,8-tetrahydro-8-quinolinamine]",< 100
11,"CN(C)[C@H]1CCN(c2cccc3nc(CN(C)[C@H]4CCCc5cccnc54)cn23)C1 [Example 91, (8S)—N-({5-[(3S)-3-(Dimethylamino)-1-pyrrolidinyl]imidazo[1,2-a]pyridin-2-yl}methyl)-N-methyl-5,6,7,8-tetrahydro-8-quinolinamine]",< 100
12,"CN1CCN(c2cccc3nc(CN(Cc4cccc(Br)c4)[C@H]4CCCc5cccnc54)cn23)CC1 [Example 64, (8S)—N-[(3-Bromophenyl)methyl]-N-{[5-(4-methyl-1-piperazinyl)imidazo[1,2-a]pyridin-2-yl]methyl}-5,6,7,8-tetrahydro-8-quinolinamine]",< 100
13,"CC(c1cn2c(N3CCN(C)CC3)cccc2n1)N(C)[C@H]1CCCc2cccnc21 (stereo partly drawn) [Example 100, (8S)—N-Methyl-N-{1-[5-(4-methyl-1-piperazinyl)imidazo[1,2-a]pyridin-2-yl]ethyl}-5,6,7,8-tetrahydro-8-quinolinamine]",< 100
14,"Cc1cccc(CN(Cc2cn3c(N4CCN(C)CC4)cccc3n2)[C@H]2CCCc3cccnc32)c1 [Example 67, (8S)—N-[(3-Methylphenyl)methyl]-N-{[5-(4-methyl-1-piperazinyl)imidazo[1,2-a]pyridin-2-yl]methyl}-5,6,7,8-tetrahydro-8-quinolinamine]",< 100
15,"COc1ccc([C@H](C)N(Cc2cn3c(N4CC[C@@H](N(C)C)C4)cccc3n2)[C@H]2CCCc3cccnc32)cc1 [Example 95, (8S)—N-({5-[(3R)-3-(Dimethylamino)-1-pyrrolidinyl]imidazo[1,2-a]pyridin-2-yl}methyl)-N-{(1S)-1-[4-(methyloxy)phenyl]ethyl}-5,6,7,8-tetrahydro-8-quinolinamine]",100 to 500
16,"Cc1ccc(CN(Cc2cn3c(N4CCN(C)CC4)cccc3n2)[C@H]2CCCc3cccnc32)cc1 [Example 68, (8S)—N-[(4-Methylphenyl)methyl]-N-{[5-(4-methyl-1-piperazinyl)imidazo[1,2-a]pyridin-2-yl]methyl}-5,6,7,8-tetrahydro-8-quinolinamine]",< 100
17,"COc1cccc(CN(Cc2cn3c(N4CCN(C)CC4)cccc3n2)[C@H]2CCCc3cccnc32)c1 [Example 73, (8S)—N-{[3-(Methyloxy)phenyl]methyl}-N-{[5-(4-methyl-1-piperazinyl)imidazo[1,2-a]pyridin-2-yl]methyl}-5,6,7,8-tetrahydro-8-quinolinamine]",< 100
18,"CN(C)C1CN(c2cccc3nc(CN(C)C4CCCc5cccnc54)cn23)C1 (centres unmarked) [Example 26, N-({5-[3-(Dimethylamino)-1-azetidinyl]imidazo[1,2-a]pyridin-2-yl}methyl)-N-methyl-5,6,7,8-tetrahydro-8-quinolinamine]",100 to 500

# Second part, the compound after the results:
row,IC50 [nM],Compound
1,< 100,"CN1CCN(c2cccc3nc(CN(Cc4ccc(F)cc4)[C@H]4CCCc5cccnc54)cn23)CC1 [Example 62, (8S)—N-[(4-Fluorophenyl)methyl]-N-{[5-(4-methyl-1-piperazinyl)imidazo[1,2-a]pyridin-2-yl]methyl}-5,6,7,8-tetrahydro-8-quinolinamine]"
2,< 100,"CCN(Cc1cn2c(N3CC[C@@H](N(C)C)C3)cccc2n1)[C@H]1CCCc2cccnc21 [Example 96, (8S)—N-({5-[(3R)-3-(Dimethylamino)-1-pyrrolidinyl]imidazo[1,2-a]pyridin-2-yl}methyl)-N-ethyl-5,6,7,8-tetrahydro-8-quinolinamine]"
3,< 100,"CC(C)N(Cc1cn2c(N3CCNCC3)cccc2n1)C1CCCc2cccnc21 (centres unmarked) [Example 21, N-(1-Methylethyl)-N-{[5-(1-piperazinyl)imidazo[1,2-a]pyridin-2-yl]methyl}-5,6,7,8-tetrahydro-8-quinolinamine]"
4,< 100,"CN(C)C1CCN(c2cccc3nc(CN(C)C4CCCc5cccnc54)cn23)CC1 (centres unmarked) [Example 38, N-({5-[4-(Dimethylamino)-1-piperidinyl]imidazo[1,2-a]pyridin-2-yl}methyl)-N-methyl-5,6,7,8-tetrahydro-8-quinolinamine]"
5,< 100,"CNC1CCN(c2cccc3nc(CN(C)C4CCCc5cccnc54)cn23)CC1 (centres unmarked) [Example 36, N-Methyl-N-({5-[4-(methylamino)-1-piperidinyl]imidazo[1,2-a]pyridin-2-yl}methyl)-5,6,7,8-tetrahydro-8-quinolinamine]"
6,< 100,"CN(Cc1cn2c(N3CC[C@@H](N(C)C)C3)cccc2n1)C1CCCc2cccnc21 (stereo partly drawn) [Example 23, N-({5-[(3R)-3-(Dimethylamino)-1-pyrrolidinyl]imidazo[1,2-a]pyridin-2-yl}methyl)-N-methyl-5,6,7,8-tetrahydro-8-quinolinamine]"
7,< 100,"CCCN(Cc1cn2c(N3CCN(C)CC3)cccc2n1)[C@H]1CCCc2cccnc21 [Example 56, (8S)—N-{[5-(4-Methyl-1-piperazinyl)imidazo[1,2-a]pyridin-2-yl]methyl}-N-propyl-5,6,7,8-tetrahydro-8-quinolinamine]"
8,< 100,"CN1CCN(c2cccc3nc(CN(CCCO)[C@H]4CCCc5cccnc54)cn23)CC1 [Example 79, 3-{{[5-(4-Methyl-1-piperazinyl)imidazo[1,2-a]pyridin-2-yl]methyl}[(8S)-5,6,7,8-tetrahydro-8-quinolinyl]amino}-1-propanol]"
9,< 100,"CN1CCN(c2cccc3nc(CN(Cc4ccc(Br)cc4)[C@H]4CCCc5cccnc54)cn23)CC1 [Example 65, (8S)—N-[(4-Bromophenyl)methyl]-N-{[5-(4-methyl-1-piperazinyl)imidazo[1,2-a]pyridin-2-yl]methyl}-5,6,7,8-tetrahydro-8-quinolinamine]"
10,< 100,"CN(C)CCOc1cccc2nc(CN(C)[C@H]3CCCc4cccnc43)cn12 [Example 104, (8S)—N-[(5-{[2-(Dimethylamino)ethyl]oxy}imidazo[1,2-a]pyridin-2-yl)methyl]-N-methyl-5,6,7,8-tetrahydro-8-quinolinamine]"
11,< 100,"CC(C)Cc1ccc(CN(Cc2cn3c(N4CCN(C)CC4)cccc3n2)[C@H]2CCCc3cccnc32)cc1 [Example 77, (8S)—N-{[5-(4-Methyl-1-piperazinyl)imidazo[1,2-a]pyridin-2-yl]methyl}-N-{[4-(2-methylpropyl)phenyl]methyl}-5,6,7,8-tetrahydro-8-quinolinamine]"

# Source: patent US20070232615A1, “Chemical Compounds” (priority 2004, published 2007)
